Numbers after ± are expanded uncertainties.
Conditions: 101.33 kPa, Liquid

Compound: CCCCn1cc[n+](C)c1.F[P-](F)(F)(F)(F)F [1-butyl-3-methylimidazolium hexafluorophosphate]
- mass density (283.13 K): 1380.43 ± 1.4 kg/m3
- mass density (293.12 K): 1372.15 ± 1.4 kg/m3
- mass density (293.3 K): 1371.88 ± 1.4 kg/m3
- mass density (302.83 K): 1363.87 ± 1.4 kg/m3
- mass density (303.3 K): 1363.48 ± 1.4 kg/m3
- mass density (312.68 K): 1355.45 ± 1.3 kg/m3
- mass density (313.17 K): 1355.18 ± 1.3 kg/m3
- mass density (322.64 K): 1347.23 ± 1.3 kg/m3
- mass density (323.23 K): 1346.72 ± 1.3 kg/m3
- mass density (332.56 K): 1338.7 ± 1.3 kg/m3
- mass density (333.66 K): 1337.95 ± 1.3 kg/m3
- mass density (342.41 K): 1330.79 ± 1.3 kg/m3
- mass density (343.27 K): 1329.87 ± 1.3 kg/m3
